Data published in US20080108674A1, “CATIONIC ANTISEPTIC AND DYE FORMULATION” (ENTURIA, INC., priority 2006, published 2008).

How the values were obtained:
[1] = Compatibility of an anionic dye alone with an aqueous CHG solution (Example 1); format: physicochemical; conditions: 0.13% w/v dye in distilled water, no cationic excipient; after two drops
Procedure: The compatibility of an anionic dye alone with an aqueous chlorhexidine gluconate (CHG) solution (i.e., without the addition of a cationic excipient) was tested. A 0.13% w/v anionic dye solution was prepared by dissolving 0.13 g FD&C Yellow 6 in 100 ml of distilled water. A 20% w/v aqueous CHG solution was then added drop wise to the dye solution.

[2] = Three-month room temperature storage of aqueous CHG / cationic dye solutions (Examples 7, 8); format: physicochemical; conditions: 2.0% w/v CHG and 0.05% w/v dye in water
Procedure: The chemical structure and chemical category of each of these dyes are presented below. Crystal violet, malachite green, and Victoria pure blue BO all belong to the same chemical family, triarylmethane. Bismark brown and acriflavine each belong to a different chemical family, azo and acridine, respectively. [drawing 3] [drawing 4]
Aqueous solutions of 2.0% w/v CHG and 0.05% w/v dye were prepared for each of the dyes indicated above to test the stability of the solutions. Each aqueous solution was prepared using a Class A 100 ml volumetric flask, in which 0.050 grams of dye were dissolved in 30.0 ml of distilled water. Additionally, 10.6 g of 20% w/v aqueous CHG solution was added to the flask. The solution was then brought up to volume with distilled water. The solutions were stored for three months at room temperatures.
In particular, the dye tested was azure C, which is a cationic dye that belongs to the thiazin family. Its positive charge comes from a tertiary sulfur atom instead of a quaternary nitrogen atom. The chemical structure and chemical category of azure C is presented below. [drawing 5]
An aqueous solution of 2.0% w/v CHG and 0.05% w/v azure C dye was prepared to test the stability of the solution. The solution was prepared similar to the preparation of the solutions in Example 7. […]

Compound	precipitate on drop wise addition of 20% w/v aqueous CHG solution to the dye solution [1]	time solution stable and dye compatible ([2]; room temperature)	visible precipitate ([2]; stored three months at room temperature)
O=S(=O)([O-])c1ccc(N=Nc2c(O)ccc3cc(S(=O)(=O)[O-])ccc23)cc1.[Na+].[Na+] [FD&C Yellow 6, FD&C Yellow No. 6 (Sunset Yellow FCF)]	precipitate was formed	–	–
CNc1ccc2nc3ccc(N)cc3[s+]c2c1.[Cl-] [azure C]	–	at least three months	no visible precipitate
